In US5102873A (priority 1989, dated 1992):
Where “and” joins values, the source holds several entries; their conditions need not be identical. Equal entries are not always repeated.

Columns and labels:
[1] = Cytotoxicity of test compound to Vero host cells (minimum toxic concentration); conditions: monkey, MTC (minimum toxic concentration), footnote: lowest concentration giving 50% reduction in percent survival of viable host cells
vaccinia virus = test: microbe, parasite or virus in culture; type: cell-based; conditions: for IC50: Orthopoxvirus vaccinia, Vero, read-out: ID50 (inhibitory dose 50; 50% reduction in virus replication), vaccinia virus in Vero cells, called MIC50; for TI (therapeutic index, MTC/ID50) / Virus Rating (VR): Vero cells; for TI (therapeutic index, MTC/ID50): TI>50 indicates a useful compound; for Virus Rating (VR): VR >=1.0 significant, 0.5-0.9 marginal, <0.5 inactive, repeat lines are repeat tests

Structure (SMILES) | MCC [1] | IC50 (vaccinia virus) | TI (therapeutic index, MTC/ID50) (vaccinia virus) | Virus Rating (VR) (vaccinia virus)
N=c1c2ncn([C@@H]3O[C@H](CO)[C@@H](O)[C@H]3O)c2ncn1OCc1ccccc1Cl.[O-][Cl+3]([O-])([O-])O [Compound 2o, 1-(2-Chlorobenzyloxy)adenosine, perchloric acid salt] | > 320 µg/mL | 1.01 µg/mL | 318 and 251 | –
Cc1cc(C)cc(COn2cnc3c(ncn3[C@@H]3O[C@H](CO)[C@@H](O)[C@H]3O)c2=N)c1.[O-][Cl+3]([O-])([O-])O [Compound 2aa, 1-(3,5-Dimethylbenzyloxy)adenosine, perchloric acid salt] | 320 µg/mL | 0.45 µg/mL | 710 and > 1000 | –
Cc1ccc(COn2cnc3c(ncn3[C@@H]3O[C@H](CO)[C@@H](O)[C@H]3O)c2=N)cc1.[O-][Cl+3]([O-])([O-])O [Compound 2b, 1-(4-Methylbenzyloxy)adenosine, perchloric acid salt] | 100 µg/mL | 0.11 µg/mL | 917 | 2.4
N=c1c2ncn([C@@H]3O[C@H](CO)[C@@H](O)[C@H]3O)c2ncn1OCc1ccccc1F.[O-][Cl+3]([O-])([O-])O [Compound 2g, 1-(2-Fluorobenzyloxy)adenosine, perchloric acid salt] | > 320 µg/mL | 4.97 µg/mL | 64 and 34 | –
N=c1c2ncn([C@@H]3O[C@H](CO)[C@@H](O)[C@H]3O)c2ncn1OCc1ccc([N+](=O)[O-])cc1.[O-][Cl+3]([O-])([O-])O [Compound 2s, 1-(4-Nitrobenzyloxy)adenosine, perchloric acid salt] | > 320 µg/mL | 2.34 µg/mL | 137 and 89 | > 1.7
N=c1c2ncn([C@@H]3O[C@H](CO)[C@@H](O)[C@H]3O)c2ncn1OCc1ccccc1[N+](=O)[O-].[O-][Cl+3]([O-])([O-])O [Compound 2q, 1-(2-Nitrobenzyloxy)adenosine, perchloric acid salt] | > 320 µg/mL | 1.03 µg/mL | 310 and 181 | –
